Source: patent US20250034139A1, “AMINE COMPOUNDS HAVING ANTI-INFLAMMATORY, ANTIFUNGAL, ANTIPARASITIC, AND ANTICANCER ACTIVITY” (PHARMA CINQ, LLC, priority 2013, published 2025)
≈ marks a conversion by molar mass, not a printed value. Counter-ions that a name gives are not always drawn. Like-named read-outs stand apart in the source and are kept apart here.

Legend:
[1] = system: PC-3 prostate cancer cells; test: Example T: sensitisation of PC-3 cells to doxorubicin, oxaliplatin, paclitaxel or vincristine, Wst1; type: cell-based, human; conditions: PC-3 cells, 72 hours; for Doxorubicin 3.5 μM: percent cell survival / Oxaliplatin 100 μM: percent cell survival / Paclitaxel 50 μM: percent cell survival / Vincristine 100 nM: percent cell survival: chemotherapy agent alone normalized to 100%; for viability at 0.4 µM: compound 0.4 μM alone; for viability at 2.5 µM: compound 2.5 μM alone
[2] = system: PC3 human prostate cancer cells; test: Example S: in vitro anticancer screen, PC-3 cells, Wst1; type: cell-based; conditions: Homo sapiens, PC-3, approximately 20 hours, Wst1, read-out: PC-3, percent of cancer cell survival relative to vehicle treated cells
How it was run: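 PC-3 cells, 2×10^4 cells/well, exposed ~20 h to vehicle or compound at 0.4, 0.5 or 2.5 μM as specified per compound. Wst1 dye added for 2 h; absorbance 450 nm (reference 630 nm), triplicates. Values are percent cell survival versus vehicle-treated cells.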

[3] = system: Aspergillus fumigatus strains; test: Example N: MIC and MFC (CLSI) against Aspergillus fumigatus; type: cell-based; set-up: MIC at 50% inhibition: unit not given here; conditions: for MIC50 / MIC: Aspergillus fumigatus; for MIC: read-out: MIC 100%
Description: (§1) The objective of this study was to determine the antifungal activity of eight experimental compounds against a representative panel of fungal isolates, including Candida albicans, C. glabrata, Cryptococcus neoformans, Trichophyton rubrum, Aspergillus fumigatus, and Rhizopus spp. Antifungal activity was measured by minimum inhibitory concentration (MIC) and minimum fungicidal concentration (MFC).
(§2) Three recent clinical strains of each species, taken from the culture collection at the Center for Medical Mycology, Case Western University, were tested.
(§3) Compounds in powder form were dissolved in DMSO. Serial dilutions of each compound were then prepared in RPMI-1640 in a range of […].
(§4) MIC testing was performed according to the CLSI M27-A3 and M38-A2 standards for the susceptibility testing of yeasts and filamentous fungi, respectively (1, 2). Test isolates were subcultured from frozen slants onto potato dextrose agar plates (Trichophyton rubrum was subcultured onto oatmeal plates for conidia production) and checked for purity. Inocula were then prepared in RPMI-1640 (YNB for Cryptococcus) to a concentration of 0.5-2.5×10^3 colony-forming units (CFU)/ml or 0.4-5×10^4 conidia/ml for yeast and filamentous fungi, respectively.
(§5) MFC determinations were performed according to the modifications previously described by Canton et al. and Ghannoum and Isham. (3, 4) Specifically, the total contents of each clear well from the MIC assay were subcultured onto potato dextrose agar. To avoid antifungal carryover, the aliquots were allowed to soak into the agar and then were streaked for isolation once dry, thus removing the cells from the drug source.

[4] = system: Cryptococcus neoformans strains; test: Example N: MIC and MFC (CLSI) against Cryptococcus neoformans; type: cell-based; conditions: Cryptococcus neoformans, three clinical strains
Description: as §1, §2, §3, §4, §5

[5] = system: Candida albicans strains; test: Example N: MIC and MFC (CLSI) against Candida albicans; type: cell-based; conditions: Candida albicans, three clinical strains; for MIC: read-out: MIC 100%, Range
Description: as §1, §2, §3, §4, §5

[6] = system: S. cerevisiae; test: Example I: Saccharomyces cerevisiae growth inhibition (OD 600 nm); type: cell-based; conditions: Saccharomyces cerevisiae, 18 hour incubation at 30° C., OD 600 nm, XLfit; for IC50: read-out: IC50, uM (50% inhibition of fungal growth); for MIC: read-out: MIC, uM (99% of inhibition of fungal growth)
[7] = Homo sapiens, Wst1, vehicle = 100, read-out: No Chemo: percent cell survival
[8] = compound 0.4 μM + doxorubicin 3.5 μM
[9] = compound 0.4 μM + oxaliplatin 100 μM
[10] = compound 0.4 μM + paclitaxel 50 μM
[11] = compound 0.4 μM + vincristine 100 nM
[12] = compound 2.5 μM + doxorubicin 3.5 μM
[13] = compound 2.5 μM + oxaliplatin 100 μM
[14] = compound 2.5 μM + paclitaxel 50 μM
[15] = compound 2.5 μM + vincristine 100 nM

IC50 [6] [µM]	MIC [6] [µM]	SMILES	viability at 0.4 µM [1, 7] [%]	Doxorubicin 3.5 μM: percent cell survival [1, 8] [%]	Oxaliplatin 100 μM: percent cell survival [1, 9] [%]	Paclitaxel 50 μM: percent cell survival [1, 10] [%]	Vincristine 100 nM: percent cell survival [1, 11] [%]	viability at 0.4 µM [2] [%]	further results
		CCCCCCOc1ccc(CNc2ccnc3ccccc23)cc1 [AA, N-[4-(Hexyloxy)benzyl]quinolin-4-amine]							viability at 1.5 µM ([1]; Homo sapiens, compound 1.5 μM alone, Wst1, vehicle = 100, read-out: No Chemo: percent cell survival): 82.6%; Doxorubicin 3.5 μM: percent cell survival ([1]; compound 1.5 μM + doxorubicin 3.5 μM): 38.6%; Oxaliplatin 100 μM: percent cell survival ([1]; compound 1.5 μM + oxaliplatin 100 μM): 31%; Paclitaxel 50 μM: percent cell survival ([1]; compound 1.5 μM + paclitaxel 50 μM): 22.2%; Vincristine 100 nM: percent cell survival ([1]; compound 1.5 μM + vincristine 100 nM): 43%; viability at 1.5 µM ([2]; 1.5 μM): 82.6%
		COc1ccc(OCCCCCCCCNc2ncnc3ccccc23)cc1 [AE, N-[8-(4-Methoxyphenoxy)octyl]quinazolin-4-amine]							MIC at 50% inhibition ([3]; 24 hrs): <0.12-0.5; MIC at 100% inhibition ([3]; 24 hrs): <0.12-1; MIC50 ([3]; 24 h): 0.12 to 0.5 µg/mL (≈ 0.316 to 1.32 µM); MIC ([3]; 24 h): 0.12 to 1 µg/mL (≈ 0.316 to 2.64 µM); MIC50 ([3]; 48 h): 0.5 to 2 µg/mL (≈ 1.32 to 5.27 µM); MIC ([3]; 48 h): 1 to 4 µg/mL (≈ 2.64 to 10.5 µM); MFC ([3]; range over Aspergillus fumigatus strains, in 48 hr): > 64 µg/mL; MIC ([4]; read-out: MIC 100%, Range, incubated for 72 hrs): 0.25 to 4 µg/mL (≈ 0.659 to 10.5 µM); MFC [4]: 1 to 8 µg/mL (≈ 2.64 to 21.1 µM); MIC ([5]; 24 hr): 0.5 to 4 µg/mL (≈ 1.32 to 10.5 µM); MIC ([5]; 48 hr): 4 µg/mL (≈ 10.5 µM); MFC ([5]; 48 hr): 8 to 64 µg/mL (≈ 21.1 to 169 µM)
		c1ccc(Oc2cccc(CNc3ccnc4ccccc34)c2)cc1 [AF, N-(3-Phenoxybenzyl)quinolin-4-amine]	19.1	35	32.4	25.2	22.6	19.1	
23.5		CCCCCCOc1cccc(CNc2ncnc3ccccc23)c1 [AK, N-[3-(Hexyloxy)benzyl]quinazolin-4-amine]							
38.5	48.9 (≈ 16.2 µg/mL)	CCCCCCOCCCCCCCCn1cnc2cnccc21 [AS, 1-[8-(Hexyloxy)octyl]-1H-imidazo[4,5-c]pyridine]							viability at 2.5 µM [1, 7]: 31.1%; Doxorubicin 3.5 μM: percent cell survival [1, 12]: 51.1%; Oxaliplatin 100 μM: percent cell survival [1, 13]: 55.5%; Paclitaxel 50 μM: percent cell survival [1, 14]: 36.8%; Vincristine 100 nM: percent cell survival [1, 15]: 30.8%; viability at 2.5 µM [2]: 31.1%
		CCCCOCCCCCCCCCCn1cnc2cnccc21 [AT, 1-(10-Butoxydecyl)-1H-imidazo[4,5-c]pyridine]	34.6	65.4	76.8	57.4	32.9	34.6	
18	24.3 (≈ 7.46 µg/mL)	CCCCCCOCCCCCCCCNc1ccncn1 [AU, N-[8-(Hexyloxy)octyl]pyrimidin-4-amine]							viability at 2.5 µM [1, 7]: 32.4%; Doxorubicin 3.5 μM: percent cell survival [1, 12]: 25.7%; Oxaliplatin 100 μM: percent cell survival [1, 13]: 41.1%; Paclitaxel 50 μM: percent cell survival [1, 14]: 34.2%; Vincristine 100 nM: percent cell survival [1, 15]: 32%; viability at 2.5 µM [2]: 32.4%
19.7	19.8 (≈ 7.32 µg/mL)	CCCCCCOCCCCCCCCNc1cc(C)nc2ccccc12 [AV, N-[8-(Hexyloxy)octyl]-2-methylquinolin-4-amine]							viability at 2.5 µM [1, 7]: 38.2%; Doxorubicin 3.5 μM: percent cell survival [1, 12]: 62.6%; Oxaliplatin 100 μM: percent cell survival [1, 13]: 59.3%; Paclitaxel 50 μM: percent cell survival [1, 14]: 34.4%; Vincristine 100 nM: percent cell survival [1, 15]: 37.2%; viability at 2.5 µM [2]: 38.2%
18.6	24.1 (≈ 9.11 µg/mL)	CCCCCCOc1cccc(OCCCNc2ccnc3ccccc23)c1 [AZ, N-{3-[3-(Hexyloxy)phenoxy]propyl}quinolin-4-amine]	95.4	33.6	26.9	54.1	71.2	95.4	
19.2	24.1 (≈ 8.75 µg/mL)	Cc1cccc(OCCCCCCCCNc2ccnc3ccccc23)c1 [BE, N-[8-(m-Tolyloxy)octyl]quinolin-4-amine]	99.1	44.1	41.2	64	74.9	99.1	
20.8	32 (≈ 11.6 µg/mL)	Cc1ccc(OCCCCCCCCNc2ccnc3ccccc23)cc1 [BF, N-[8-(p-Tolyloxy)octyl]quinolin-4-amine]	92.8	40.9	37.2	57.1	74.1	92.8	
9.88	11.8 (≈ 4.29 µg/mL)	Cc1ccccc1OCCCCCCCCNc1ccnc2ccccc12 [BG, N-[8-(o-Tolyloxy)octyl]quinolin-4-amine]	99.1	40.1	36.2	59.2	71.1	99.1	
28.6	47.1 (≈ 17.3 µg/mL)	Fc1cccc(OCCCCCCCCNc2ccnc3ccccc23)c1 [BI, N-[8-(3-Fluorophenoxy)octyl]quinolin-4-amine]	111	76.6	84.3	71.7	81.7	111	
21.4	37.8 (≈ 13.9 µg/mL)	Fc1ccc(OCCCCCCCCNc2ccnc3ccccc23)cc1 [BJ, N-[8-(4-Fluorophenoxy)octyl]quinolin-4-amine]	23.9	56.8	64.1	50.2	50.8	23.9	
21.4	29.4 (≈ 10.4 µg/mL)	CCCCCCOc1ccc(CNc2ccnc3ccccc23)cc1F [BK, N-[3-Fluoro-4-(hexyloxy)benzyl]quinolin-4-amine]	29.2	32.1	27.3	20.6	28.3	29.2	
30.6	50.5 (≈ 16.5 µg/mL)	c1ccc(Oc2cccc(CNc3ncnc4ccccc34)c2)cc1 [BM, N-(3-Phenoxybenzyl)quinazolin-4-amine]							
		CCCCCCOCCCCCCCC[n+]1ccc(N)cc1 [BO, 4-Amino-1-[8-(hexyloxy)octyl]pyridinium salts]	13.4	82.4	28.4	28.2	18.4	13.4	
